# Reference: patent publication US12344600B2, “c-Myc mRNA translation modulators and uses thereof in the treatment of cancer” (Anima Biotech Inc., priority 2022, dated 2025)
# System: c-Myc
# Assay: c-Myc immunofluorescence assay
# Type: cell-based, human
# Details: A549 cells, 24 hours, anti-c-Myc immunofluorescence
# Outline: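 Read-out is imaged c-Myc immunofluorescence, nucleus-segmented, in A549 lung carcinoma cells exposed to compound dose series for 24 h after 48 h growth. Fixation 4% paraformaldehyde, Triton permeabilization, antibody staining at room temperature; EC50 from logistic fit of signal versus concentration.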
row,Compound,Myc Efficacy (−LogEC50)
1,"COc1ccc(-c2noc(N3CCC(C(=O)NC4CCN(C)CC4)CC3)n2)cc1 [Compound 218, 1-(3-(4-methoxyphenyl)-1,2,4-oxadiazol-5-yl)-N-(1-methylpiperidin-4-yl)piperidine-4-carboxamide]",− (− ≤3)
2,"COc1ccc(-c2noc(N3CCC(C(=O)NCC4CCN(C)C4)CC3)n2)cc1 (stereo not shown) [Compound 219, 1-(3-(4-methoxyphenyl)-1,2,4-oxadiazol-5-yl)-N-((1-methylpyrrolidin-3-yl)methyl)piperidine-4-carboxamide]",− (− ≤3)
3,"COc1ccc(-c2noc(N3CCC(C(=O)NCC4CCN(CC5CC5)C4)CC3)n2)cc1 (stereo not shown) [Compound 220, N-((1-(cyclopropylmethyl)pyrrolidin-3-yl)methyl)-1-(3-(4-methoxyphenyl)-1,2,4-oxadiazol-5-yl)piperidine-4-carboxamide]",+ (+ >3 and <5)
4,"COc1ccc(-c2noc(N3CCN(C(=O)NCC4CCN(CC5CC5)C4)CC3)n2)cc1 (stereo not shown) [Compound 221, N-((1-(cyclopropylmethyl)pyrrolidin-3-yl)methyl)-4-(3-(4-methoxyphenyl)-1,2,4-oxadiazol-5-yl)piperazine-1-carboxamide]",+ (+ >3 and <5)
5,"COc1ccc(-c2noc(N3CCC(C(=O)NCC4CCN(C(=O)c5ccc(C)cc5)C4)CC3)n2)cc1 (stereo not shown) [Compound 222, 1-(3-(4-methoxyphenyl)-1,2,4-oxadiazol-5-yl)-N-((1-(4-methylbenzoyl)pyrrolidin-3-yl)methyl)piperidine-4-carboxamide]",++ (++ ≥5 and <6)
6,"COc1ccc(-c2noc(N3CCC(C(=O)NCC4CCN(Cc5ccc(C)cn5)C4)CC3)n2)cc1 (stereo not shown) [Compound 223, 1-(3-(4-methoxyphenyl)-1,2,4-oxadiazol-5-yl)-N-((1-((5-methylpyridin-2-yl)methyl)pyrrolidin-3-yl)methyl)piperidine-4-carboxamide]",++ (++ ≥5 and <6)
7,"COc1ccc(-c2noc(N3CCC(C(=O)Nc4ccccc4Cl)CC3)n2)cc1 [Compound 224, N-(2-chlorophenyl)-1-(3-(4-methoxyphenyl)-1,2,4-oxadiazol-5-yl)piperidine-4-carboxamide]",+ (+ >3 and <5)
8,"COc1ccc(-c2noc(N3CCN(C(=O)N4CCN(C(C)=O)CC4)CC3)n2)cc1 [Compound 225, 1-(4-(4-(3-(4-methoxyphenyl)-1,2,4-oxadiazol-5-yl)piperazine-1-carbonyl)piperazin-1-yl)ethan-1-one]",− (− ≤3)
9,"COc1ccc(-c2noc(N3CCN(C(=O)N4CCCC(CC(C)C)C4)CC3)n2)cc1 (stereo not shown) [Compound 226, (3-isobutylpiperidin-1-yl)(4-(3-(4-methoxyphenyl)-1,2,4-oxadiazol-5-yl)piperazin-1-yl)methanone]",+ (+ >3 and <5)
10,"COc1ccc(-c2noc(N3CCN(C(=O)C4CCCN(CC(C)C)C4)CC3)n2)cc1 (stereo not shown) [Compound 227, (1-isobutylpiperidin-3-yl)(4-(3-(4-methoxyphenyl)-1,2,4-oxadiazol-5-yl)piperazin-1-yl)methanone]",+ (+ >3 and <5)
11,"COc1ccc(-c2noc(N3CCC(C(=O)NCCCN4CCN(C(=O)c5ccccc5)CC4)CC3)n2)cc1 [Compound 228, N-(3-(4-benzoylpiperazin-1-yl)propyl)-1-(3-(4-methoxyphenyl)-1,2,4-oxadiazol-5-yl)piperidine-4-carboxamide]",+ (+ >3 and <5)
12,"COc1ccc(-c2noc(C3CCC(C(=O)NCC4CC(=O)N(C)C4)CC3)n2)cc1 (stereo not shown) [Compound 229, (1r,4r)-4-(3-(4-methoxyphenyl)-1,2,4-oxadiazol-5-yl)-N-((1-methyl-5-oxopyrrolidin-3-yl)methyl)cyclohexane-1-carboxamide]",+ (+ >3 and <5)
13,"CC(=O)Nc1cccc(-c2noc(N3CCC(C(=O)NCC4CCN(Cc5ccc(C)cc5)C4)CC3)n2)c1 (stereo not shown) [Compound 230, 1-(3-(3-acetamidophenyl)-1,2,4-oxadiazol-5-yl)-N-((1-(4-methylbenzyl)pyrrolidin-3-yl)methyl)piperidine-4-carboxamide]",+ (+ >3 and <5)
14,"COc1ccc(-c2noc(N3CCC(C(=O)NCC4CCN(Cc5ccc(C)cc5)C4)CC3)n2)c(Cl)c1 (stereo not shown) [Compound 231, 1-(3-(2-chloro-4-methoxyphenyl)-1,2,4-oxadiazol-5-yl)-N-((1-(4-methylbenzyl)pyrrolidin-3-yl)methyl)piperidine-4-carboxamide]",++ (++ ≥5 and <6)
15,"COc1ncc(-c2noc(N3CCC(C(=O)NCC4CCN(Cc5ccc(C)cc5)C4)CC3)n2)cn1 (stereo not shown) [Compound 232, 1-(3-(2-methoxypyrimidin-5-yl)-1,2,4-oxadiazol-5-yl)-N-((1-(4-methylbenzyl)pyrrolidin-3-yl)methyl)piperidine-4-carboxamide]",+ (+ >3 and <5)
16,"COc1cnc(-c2noc(N3CCC(C(=O)NCC4CCN(Cc5ccc(C)cc5)C4)CC3)n2)cn1 (stereo not shown) [Compound 233, 1-(3-(5-methoxypyrazin-2-yl)-1,2,4-oxadiazol-5-yl)-N-((1-(4-methylbenzyl)pyrrolidin-3-yl)methyl)piperidine-4-carboxamide]",+ (+ >3 and <5)

row,Compound,Myc Efficacy (−LogEC50)
1,"COc1ccc(-c2noc(N3CCC(C(=O)NCC4CCN(c5ccccc5)C4)CC3)n2)cc1 (stereo not shown) [Compound 234, 1-(3-(4-methoxyphenyl)-1,2,4-oxadiazol-5-yl)-N-((1-phenylpyrrolidin-3-yl)methyl)piperidine-4-carboxamide]",+ (+ >3 and <5)
2,"COc1ccc(-c2noc(N3CCN(c4nc5ccccc5[nH]4)CC3)n2)cc1 [Compound 235, 5-(4-(1H-benzo[d]imidazol-2-yl)piperazin-1-yl)-3-(4-methoxyphenyl)-1,2,4-oxadiazole]",+ (+ >3 and <5)
3,"COc1ccc(-c2noc(N3CCN(C(=O)c4cccc(CN5CCCCC5)c4)CC3)n2)cc1 [Compound 236, (4-(3-(4-methoxyphenyl)-1,2,4-oxadiazol-5-yl)piperazin-1-yl)(3-(piperidin-1-ylmethyl)phenyl)methanone]",++ (++ ≥5 and <6)
4,"Cc1ccc(CN2CCC(CNC(=O)C3CCN(c4nc(-c5ccc(OC(F)(F)F)cc5)no4)CC3)C2)cc1 (stereo not shown) [Compound 237, N-((1-(4-methylbenzyl)pyrrolidin-3-yl)methyl)-1-(3-(4-(trifluoromethoxy)phenyl)-1,2,4-oxadiazol-5-yl)piperidine-4-carboxamide]",++ (++ ≥5 and <6)
5,"Cc1ccc(CN2CCC(CNC(=O)C3CCN(c4nc(-c5ccc(OC(F)F)cc5)no4)CC3)C2)cc1 (stereo not shown) [Compound 238, 1-(3-(4-(difluoromethoxy)phenyl)-1,2,4-oxadiazol-5-yl)-N-((1-(4-methylbenzyl)pyrrolidin-3-yl)methyl)piperidine-4-carboxamide]",+++ (+++ ≥6)
6,"O=C(NCCCN1CCC(Cc2ccccc2)CC1)C1CCN(c2nc(-c3ccc(OC(F)(F)F)cc3)no2)CC1 [Compound 239, N-(3-(4-benzylpiperidin-1-yl)propyl)-1-(3-(4-(trifluoromethoxy)phenyl)-1,2,4-oxadiazol-5-yl)piperidine-4-carboxamide]",+++ (+++ ≥6)
7,"O=C(NCCCN1CCC(Cc2ccccc2)CC1)C1CCN(c2nc(-c3ccc(OC(F)F)cc3)no2)CC1 [Compound 240, N-(3-(4-benzylpiperidin-1-yl)propyl)-1-(3-(4-(difluoromethoxy)phenyl)-1,2,4-oxadiazol-5-yl)piperidine-4-carboxamide]",+++ (+++ ≥6)
8,"N#Cc1ccc(-c2noc(N3CCC(C(=O)NCCCN4CCC(Cc5ccccc5)CC4)CC3)n2)cc1 [Compound 241, N-(3-(4-benzylpiperidin-1-yl)propyl)-1-(3-(4-cyanophenyl)-1,2,4-oxadiazol-5-yl)piperidine-4-carboxamide]",+++ (+++ ≥6)
9,"COc1ccc(-c2noc(N3CCC(C(=O)NCC4CCN(C(=O)c5ccc(C)cn5)C4)CC3)n2)cc1 (stereo not shown) [Compound 242, 1-(3-(4-methoxyphenyl)-1,2,4-oxadiazol-5-yl)-N-((1-(5-methylpicolinoyl)pyrrolidin-3-yl)methyl)piperidine-4-carboxamide]",+ (+ >3 and <5)
10,"Cc1ccc(CN2CCC(CNC(=O)C3CCN(c4nc(-c5ccc(Cl)cc5)no4)CC3)C2)nc1 (stereo not shown) [Compound 243, 1-(3-(4-chlorophenyl)-1,2,4-oxadiazol-5-yl)-N-((1-((5-methylpyridin-2-yl)methyl)pyrrolidin-3-yl)methyl)piperidine-4-carboxamide]",+++ (+++ ≥6)
11,"Cc1ccc(CN2CCC(CNC(=O)C3CCN(c4nc(-c5ccc(C#N)cc5)no4)CC3)C2)nc1 (stereo not shown) [Compound 244, 1-(3-(4-cyanophenyl)-1,2,4-oxadiazol-5-yl)-N-((1-((5-methylpyridin-2-yl)methyl)pyrrolidin-3-yl)methyl)piperidine-4-carboxamide]",+ (+ >3 and <5)
12,"COc1ccc(-c2noc(N3CCN(C(=O)NCCCN4CCC(Oc5ccccc5)CC4)CC3)n2)cc1 [Compound 245, 4-(3-(4-methoxyphenyl)-1,2,4-oxadiazol-5-yl)-N-(3-(4-phenoxypiperidin-1-yl)propyl)piperazine-1-carboxamide]",+++ (+++ ≥6)
13,"C#CCCC1(CCNC(=O)N2CCN(c3nc(-c4ccc(OC)cc4)no3)CC2)N=N1 [Compound 246, N-(2-(3-(but-3-yn-1-yl)-3H-diazirin-3-yl)ethyl)-4-(3-(4-methoxyphenyl)-1,2,4-oxadiazol-5-yl)piperazine-1-carboxamide]",+ (+ >3 and <5)
14,"COc1cnc(-c2noc(N3CCC(C(=O)NCC4CCN(Cc5ccc(C)cc5)C4)CC3)n2)nc1 (stereo not shown) [Compound 247, 1-(3-(5-methoxypyrimidin-2-yl)-1,2,4-oxadiazol-5-yl)-N-((1-(4-methylbenzyl)pyrrolidin-3-yl)methyl)piperidine-4-carboxamide]",+ (+ >3 and <5)
15,"COc1ccc(-c2noc(N3CCN(C(=O)NCCCN4CCC(Cc5ccccn5)CC4)CC3)n2)cc1 [Compound 248, 4-(3-(4-methoxyphenyl)-1,2,4-oxadiazol-5-yl)-N-(3-(4-(pyridin-2-ylmethyl)piperidin-1-yl)propyl)piperazine-1-carboxamide]",+++ (+++ ≥6)
